# Data taken from patent US9302999B2, “Substituted triazoles as herbicides” (E. I. DU PONT DE NEMOURS AND COMPANY, priority 2012, dated 2016).
# Key:
# Format in all cases: in vivo
# [1] = tested on: wheat, winter (winter wheat, Triticum aestivum); assay: Test D pre-/postemergence: wheat, winter
# Summary of the method: (§1)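 Scores run from 0 (no effect) to 100 (complete control), assigned by visual comparison with controls after 14 to 21 days in a controlled environment. Both preemergence application to silt loam and postemergence application to 1- to 4-leaf plants were tested.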
# [2] = tested on: field poppy (Papaver rhoeas); assay: Test D pre-/postemergence: field poppy
# Summary of the method: as §1
# [3] = tested on: galium (catchweed bedstraw, Galium aparine); assay: Test D pre-/postemergence: galium; conditions: Postemergence; for Plant response rating, Galium: 16 g ai/ha, scale 0 to 100
# Summary of the method: as §1
# [4] = tested on: foxtail, green (green foxtail Setaria viridis); assay: Test F pre-/postemergence: foxtail, green; conditions: Preemergence
# Excerpt: Seeds of plant species selected from corn (Zea mays), soybean (Glycine max), velvetleaf (Abutilon theophrasti), lambsquarters (Chenopodium album), poinsettia, wild (wild poinsettia, Euphorbia heterophylla), pigweed, palmer (palmer pigweed, Amaranthus palmeri), waterhemp (common waterhemp, Amaranthus rudis), surinam grass (Brachiaria decumbens), crabgrass, Brazil (Brazilian crabgrass, Digitaria horizontalis), panicum, fall (fall panicum Panicum dichotomiflorum), crabgrass, large (large crabgrass, Digitaria sanguinalis), foxtail, giant (giant foxtail, Setaria faberii), foxtail, green (green foxtail Setaria viridis), goosegrass (Eleusine indica), ragweed (common ragweed, Ambrosia elatior), barnyardgrass (Echinochloa crus-galli), sandbur (southern sandbur, Cenchrus echinatus), arrowleaf sida (Sida rhombifolia), ryegrass, Italian (Italian ryegrass, Lolium multiflorum), dayflower, VA (Virginia (VA) dayflower, Commelina virginica), field bindweed (Convolvulus arvensis), cocklebur (common cocklebur, Xanthium strumarium), morningglory (Ipomoea coccinea), nightshade (eastern black nightshade, Solanum ptycanthum), kochia (Kochia scoparia), nutsedge, yellow (yellow nutsedge, Cyperus esculentus), johnsongrass (Sorghum halepense), smartweed (ladysthumb smartweed, Polygonum persicaria), and beggarticks (hairy beggarticks, Bidens pilosa), were planted into a silt loam soil and treated preemergence with test chemicals formulated in a non-phytotoxic solvent mixture which included a surfactant. At the same time, plants selected from these crop and weed species and also pigweed (Amaranthus retroflexus), waterhemp_RES1 (ALS/Triazine resistant common waterhemp, Amaranthus rudis) and waterhemp_RES2 (ALS/HPPD resistant common waterhemp, Amaranthus rudis) were planted in pots containing a planting medium comprising spaghnum peat moss, vermiculite, wetting agent and starter nutrients treated with postemergence applications of some of the test chemicals formulated in the same manner. Plants ranged in height from 2 to 18 cm for postemergence treatments (1- to 4-leaf stage).
# Treated plants and controls were maintained in a greenhouse for 14 to 21 days, after which time all species were compared to controls and visually evaluated. Plant response ratings, summarized in Table E, are based on a scale of 0 to 100 where 0 is no effect and 100 is complete control. A dash (-) response means no test result.
# [5] = tested on: pigweed (Amaranthus retroflexus); assay: Test D pre-/postemergence: pigweed
# Summary of the method: as §1
# [6] = tested on: poinsettia, wild (wild poinsettia, Euphorbia heterophylla); assay: Test F pre-/postemergence: poinsettia, wild; conditions: Preemergence
# Summary of the method: (§2)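 0–100 visual control scores, taken 14–21 d after application in the greenhouse. Preemergence treatment was made to silt loam soil at sowing. Postemergence sprays hit 1- to 4-leaf plants (2–18 cm) in peat/vermiculite mix. Surfactant-containing non-phytotoxic solvent served as the vehicle.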
# kochia (Kochia scoparia) = assay: Test F pre-/postemergence: kochia; conditions: Preemergence
# Summary of the method: as §2
# [7] = Postemergence, 31 g ai/ha, scale 0 to 100 (0 no effect, 100 complete control)
# [8] = Postemergence, 62 g ai/ha, scale 0 to 100 (0 no effect, 100 complete control)
# [9] = Postemergence, 125 g ai/ha, scale 0 to 100, 0 no effect, 100 complete control
# [10] = Postemergence, 16 g ai/ha, scale 0 to 100
# [11] = Preemergence, 16 g ai/ha, scale 0 to 100, 0 no effect, 100 complete control
# [12] = Preemergence, 31 g ai/ha, scale 0 to 100, 0 no effect, 100 complete control
# [13] = Preemergence, 62 g ai/ha, scale 0 to 100
# [14] = Preemergence, 125 g ai/ha, scale 0 to 100
# [15] = 31 g ai/ha, scale 0 to 100 (0 no effect, 100 complete control)
# [16] = 62 g ai/ha, scale 0 to 100 (0 no effect, 100 complete control)
# [17] = 125 g ai/ha, scale 0 to 100, 0 no effect, 100 complete control
# [18] = 16 g ai/ha, scale 0 to 100, 0 no effect, 100 complete control
# [19] = 31 g ai/ha, scale 0 to 100, 0 no effect, 100 complete control
smiles,measurement,setting,value
Cc1nn(-c2ccc(C(F)(F)F)c(F)c2)nc1Oc1ccnc(C(F)(F)F)c1 [Compound 148],"Plant response rating: Wheat, Winter",[1]; [7],10
same,"Plant response rating: Wheat, Winter",[1]; [8],15
same,"Plant response rating: Wheat, Winter",[1]; [9],25
same,"Plant response rating, Wheat, Winter",[1]; [10],10
same,"Plant response rating, Wheat, Winter",[1]; [11],0
same,"Plant response rating, Wheat, Winter",[1]; [12],5
same,"Plant response rating, Wheat, Winter",[1]; [13],0
same,"Plant response rating, Wheat, Winter",[1]; [14],10
same,Plant response rating: Field Poppy,[2]; [7],100
same,Plant response rating: Field Poppy,[2]; [8],95
same,Plant response rating: Field Poppy,[2]; [9],100
same,"Plant response rating, Field Poppy",[2]; [10],90
same,"Plant response rating, Field Poppy",[2]; [11],10
same,"Plant response rating, Field Poppy",[2]; [12],70
same,"Plant response rating, Field Poppy",[2]; [13],100
same,"Plant response rating, Field Poppy",[2]; [14],95
same,Plant response rating: Galium,[3]; [15],70
same,Plant response rating: Galium,[3]; [16],70
same,Plant response rating: Galium,[3]; [17],75
same,"Plant response rating, Galium",[3],60
same,"Plant response rating, Foxtail, Green",[4]; [18],35
same,"Plant response rating, Foxtail, Green",[4]; [19],100
same,"Plant response rating, Foxtail, Green","[4]; 62 g ai/ha, scale 0 to 100",100
same,"Plant response rating, Foxtail, Green","[4]; 125 g ai/ha, scale 0 to 100",100
same,"Plant response rating, Foxtail, Green","[4]; 250 g ai/ha, scale 0 to 100",100
same,Plant response rating: Pigweed,[5]; [7],85
same,Plant response rating: Pigweed,[5]; [8],95
same,Plant response rating: Pigweed,[5]; [9],95
same,"Plant response rating, Pigweed",[5]; [10],70
same,"Plant response rating, Pigweed",[5]; [11],15
same,"Plant response rating, Pigweed",[5]; [12],70
same,"Plant response rating, Pigweed",[5]; [13],85
same,"Plant response rating, Pigweed",[5]; [14],100
same,"Plant response rating, Poinsettia, Wild",[6]; [18],0
same,"Plant response rating, Poinsettia, Wild",[6]; [19],0
same,"Plant response rating, Poinsettia, Wild","[6]; 125 g ai/ha, scale 0 to 100",20
same,"Plant response rating, Poinsettia, Wild","[6]; 250 g ai/ha, scale 0 to 100",100
same,"Plant response rating, Kochia",kochia (Kochia scoparia); [18],0
same,"Plant response rating, Kochia",kochia (Kochia scoparia); [19],90
same,"Plant response rating, Kochia","kochia (Kochia scoparia); 62 g ai/ha, scale 0 to 100",90
same,"Plant response rating, Kochia","kochia (Kochia scoparia); 125 g ai/ha, scale 0 to 100",95
same,"Plant response rating, Kochia","kochia (Kochia scoparia); 250 g ai/ha, scale 0 to 100",98
CCc1nn(-c2ccc(F)cc2)nc1Cc1ccnc(C(F)(F)F)c1 [Compound 154],"Plant response rating, Foxtail, Green",[4]; [18],40
same,"Plant response rating, Foxtail, Green",[4]; [19],75
same,"Plant response rating, Foxtail, Green","[4]; 62 g ai/ha, scale 0 to 100",100
same,"Plant response rating, Foxtail, Green","[4]; 125 g ai/ha, scale 0 to 100",100
same,"Plant response rating, Foxtail, Green","[4]; 250 g ai/ha, scale 0 to 100",100
same,"Plant response rating, Poinsettia, Wild",[6]; [18],0
same,"Plant response rating, Poinsettia, Wild",[6]; [19],0
same,"Plant response rating, Poinsettia, Wild","[6]; 125 g ai/ha, scale 0 to 100",25
same,"Plant response rating, Poinsettia, Wild","[6]; 250 g ai/ha, scale 0 to 100",85
same,"Plant response rating, Kochia",kochia (Kochia scoparia); [18],5
same,"Plant response rating, Kochia",kochia (Kochia scoparia); [19],25
same,"Plant response rating, Kochia","kochia (Kochia scoparia); 62 g ai/ha, scale 0 to 100",85
same,"Plant response rating, Kochia","kochia (Kochia scoparia); 125 g ai/ha, scale 0 to 100",95
same,"Plant response rating, Kochia","kochia (Kochia scoparia); 250 g ai/ha, scale 0 to 100",98
CCc1nn(-c2ccc(C(F)(F)F)cc2)nc1Cc1ccnc(C(F)(F)F)c1 [Compound 155],"Plant response rating: Wheat, Winter",[1]; [7],10
same,"Plant response rating: Wheat, Winter",[1]; [8],15
same,"Plant response rating: Wheat, Winter",[1]; [9],25
same,"Plant response rating, Wheat, Winter",[1]; [10],5
same,"Plant response rating, Wheat, Winter",[1]; [11],0
same,"Plant response rating, Wheat, Winter",[1]; [12],0
same,"Plant response rating, Wheat, Winter",[1]; [13],5
same,"Plant response rating, Wheat, Winter",[1]; [14],5
same,Plant response rating: Field Poppy,[2]; [7],95
same,Plant response rating: Field Poppy,[2]; [8],100
same,Plant response rating: Field Poppy,[2]; [9],100
same,"Plant response rating, Field Poppy",[2]; [10],80
same,"Plant response rating, Field Poppy",[2]; [11],80
same,"Plant response rating, Field Poppy",[2]; [12],95
same,"Plant response rating, Field Poppy",[2]; [13],95
same,"Plant response rating, Field Poppy",[2]; [14],100
same,Plant response rating: Galium,[3]; [15],70
same,Plant response rating: Galium,[3]; [16],70
same,Plant response rating: Galium,[3]; [17],75
same,"Plant response rating, Galium",[3],65
same,"Plant response rating, Foxtail, Green","[4]; 62 g ai/ha, scale 0 to 100",100
same,"Plant response rating, Foxtail, Green","[4]; 125 g ai/ha, scale 0 to 100",100
same,"Plant response rating, Foxtail, Green","[4]; 250 g ai/ha, scale 0 to 100",100
same,Plant response rating: Pigweed,[5]; [7],75
same,Plant response rating: Pigweed,[5]; [8],95
same,Plant response rating: Pigweed,[5]; [9],95
same,"Plant response rating, Pigweed",[5]; [10],70
same,"Plant response rating, Pigweed",[5]; [11],60
same,"Plant response rating, Pigweed",[5]; [12],80
same,"Plant response rating, Pigweed",[5]; [13],100
same,"Plant response rating, Pigweed",[5]; [14],100
same,"Plant response rating, Poinsettia, Wild","[6]; 125 g ai/ha, scale 0 to 100",80
same,"Plant response rating, Poinsettia, Wild","[6]; 250 g ai/ha, scale 0 to 100",100
same,"Plant response rating, Kochia","kochia (Kochia scoparia); 62 g ai/ha, scale 0 to 100",70
same,"Plant response rating, Kochia","kochia (Kochia scoparia); 125 g ai/ha, scale 0 to 100",98
same,"Plant response rating, Kochia","kochia (Kochia scoparia); 250 g ai/ha, scale 0 to 100",100
